Data from the OligoGym collection.
Oligonucleotides are given in HELM: sugar(base)linkage, 5' to 3'; d 2'-deoxyribose, r ribose, m 2'-O-methylribose, p phosphate. ss, as = sense and antisense strand

target: CDC34; experiment: reporter assay of Huesken 2005; settings: siRNA
Further: test concentration or dose not given here.

Substance	normalised inhibition (eCFP-eYFP dual reporter) [%]
RNA1{r(C)p.r(G)p.r(A)p.r(G)p.r(G)p.r(G)p.r(C)p.r(G)p.r(A)p.r(U)p.r(C)p.r(U)p.r(A)p.r(U)p.r(A)p.r(C)p.r(A)p.r(A)p.r(C)p.d(T)p.d(T)}|RNA2{r(G)p.r(U)p.r(U)p.r(G)p.r(U)p.r(A)p.r(U)p.r(A)p.r(G)p.r(A)p.r(U)p.r(C)p.r(G)p.r(C)p.r(C)p.r(C)p.r(U)p.r(C)p.r(G)p.d(T)p.d(C)}$$$RNA1{StrandType:ss}|RNA2{StrandType:as}$	72.7
RNA1{r(C)p.r(G)p.r(C)p.r(C)p.r(U)p.r(C)p.r(C)p.r(G)p.r(U)p.r(G)p.r(A)p.r(U)p.r(G)p.r(U)p.r(A)p.r(C)p.r(A)p.r(G)p.r(G)p.d(T)p.d(T)}|RNA2{r(C)p.r(C)p.r(U)p.r(G)p.r(U)p.r(A)p.r(C)p.r(A)p.r(U)p.r(C)p.r(A)p.r(C)p.r(G)p.r(G)p.r(A)p.r(G)p.r(G)p.r(C)p.r(G)p.d(T)p.d(C)}$$$RNA1{StrandType:ss}|RNA2{StrandType:as}$	36.4
RNA1{r(C)p.r(G)p.r(C)p.r(G)p.r(C)p.r(C)p.r(U)p.r(C)p.r(A)p.r(A)p.r(G)p.r(U)p.r(U)p.r(C)p.r(C)p.r(C)p.r(C)p.r(A)p.r(U)p.d(T)p.d(T)}|RNA2{r(A)p.r(U)p.r(G)p.r(G)p.r(G)p.r(G)p.r(A)p.r(A)p.r(C)p.r(U)p.r(U)p.r(G)p.r(A)p.r(G)p.r(G)p.r(C)p.r(G)p.r(C)p.r(G)p.d(C)p.d(C)}$$$RNA1{StrandType:ss}|RNA2{StrandType:as}$	51.1
RNA1{r(C)p.r(G)p.r(C)p.r(G)p.r(U)p.r(G)p.r(A)p.r(C)p.r(A)p.r(C)p.r(U)p.r(G)p.r(G)p.r(U)p.r(G)p.r(G)p.r(A)p.r(C)p.r(G)p.d(T)p.d(T)}|RNA2{r(C)p.r(G)p.r(U)p.r(C)p.r(C)p.r(A)p.r(C)p.r(C)p.r(A)p.r(G)p.r(U)p.r(G)p.r(U)p.r(C)p.r(A)p.r(C)p.r(G)p.r(C)p.r(G)p.d(G)p.d(A)}$$$RNA1{StrandType:ss}|RNA2{StrandType:as}$	67.3
RNA1{r(C)p.r(G)p.r(U)p.r(C)p.r(A)p.r(G)p.r(G)p.r(A)p.r(C)p.r(C)p.r(A)p.r(U)p.r(U)p.r(C)p.r(U)p.r(C)p.r(C)p.r(U)p.r(G)p.d(T)p.d(T)}|RNA2{r(C)p.r(A)p.r(G)p.r(G)p.r(A)p.r(G)p.r(A)p.r(A)p.r(U)p.r(G)p.r(G)p.r(U)p.r(C)p.r(C)p.r(U)p.r(G)p.r(A)p.r(C)p.r(G)p.d(T)p.d(T)}$$$RNA1{StrandType:ss}|RNA2{StrandType:as}$	72.1
RNA1{r(C)p.r(G)p.r(U)p.r(G)p.r(G)p.r(A)p.r(C)p.r(G)p.r(C)p.r(C)p.r(U)p.r(C)p.r(C)p.r(G)p.r(U)p.r(G)p.r(A)p.r(U)p.r(G)p.d(T)p.d(T)}|RNA2{r(C)p.r(A)p.r(U)p.r(C)p.r(A)p.r(C)p.r(G)p.r(G)p.r(A)p.r(G)p.r(G)p.r(C)p.r(G)p.r(U)p.r(C)p.r(C)p.r(A)p.r(C)p.r(G)p.d(T)p.d(T)}$$$RNA1{StrandType:ss}|RNA2{StrandType:as}$	79.4
RNA1{r(C)p.r(U)p.r(A)p.r(C)p.r(G)p.r(A)p.r(C)p.r(G)p.r(A)p.r(C)p.r(U)p.r(A)p.r(C)p.r(U)p.r(A)p.r(C)p.r(G)p.r(G)p.r(G)p.d(T)p.d(T)}|RNA2{r(C)p.r(C)p.r(C)p.r(G)p.r(U)p.r(A)p.r(G)p.r(U)p.r(A)p.r(G)p.r(U)p.r(C)p.r(G)p.r(U)p.r(C)p.r(G)p.r(U)p.r(A)p.r(G)p.d(A)p.d(A)}$$$RNA1{StrandType:ss}|RNA2{StrandType:as}$	69
RNA1{r(C)p.r(U)p.r(A)p.r(C)p.r(G)p.r(A)p.r(G)p.r(G)p.r(G)p.r(C)p.r(G)p.r(G)p.r(C)p.r(U)p.r(A)p.r(C)p.r(U)p.r(U)p.r(C)p.d(T)p.d(T)}|RNA2{r(G)p.r(A)p.r(A)p.r(G)p.r(U)p.r(A)p.r(G)p.r(C)p.r(C)p.r(G)p.r(C)p.r(C)p.r(C)p.r(U)p.r(C)p.r(G)p.r(U)p.r(A)p.r(G)p.d(T)p.d(A)}$$$RNA1{StrandType:ss}|RNA2{StrandType:as}$	59.8
RNA1{r(C)p.r(U)p.r(C)p.r(A)p.r(G)p.r(A)p.r(C)p.r(C)p.r(U)p.r(C)p.r(U)p.r(U)p.r(C)p.r(U)p.r(A)p.r(C)p.r(G)p.r(A)p.r(C)p.d(T)p.d(T)}|RNA2{r(G)p.r(U)p.r(C)p.r(G)p.r(U)p.r(A)p.r(G)p.r(A)p.r(A)p.r(G)p.r(A)p.r(G)p.r(G)p.r(U)p.r(C)p.r(U)p.r(G)p.r(A)p.r(G)p.d(C)p.d(C)}$$$RNA1{StrandType:ss}|RNA2{StrandType:as}$	37.2
RNA1{r(C)p.r(U)p.r(C)p.r(C)p.r(U)p.r(G)p.r(A)p.r(G)p.r(U)p.r(G)p.r(U)p.r(G)p.r(A)p.r(U)p.r(C)p.r(U)p.r(C)p.r(C)p.r(C)p.d(T)p.d(T)}|RNA2{r(G)p.r(G)p.r(G)p.r(A)p.r(G)p.r(A)p.r(U)p.r(C)p.r(A)p.r(C)p.r(A)p.r(C)p.r(U)p.r(C)p.r(A)p.r(G)p.r(G)p.r(A)p.r(G)p.d(A)p.d(A)}$$$RNA1{StrandType:ss}|RNA2{StrandType:as}$	42.3
RNA1{r(C)p.r(U)p.r(G)p.r(A)p.r(G)p.r(U)p.r(G)p.r(U)p.r(G)p.r(A)p.r(U)p.r(C)p.r(U)p.r(C)p.r(C)p.r(C)p.r(U)p.r(C)p.r(C)p.d(T)p.d(T)}|RNA2{r(G)p.r(G)p.r(A)p.r(G)p.r(G)p.r(G)p.r(A)p.r(G)p.r(A)p.r(U)p.r(C)p.r(A)p.r(C)p.r(A)p.r(C)p.r(U)p.r(C)p.r(A)p.r(G)p.d(G)p.d(A)}$$$RNA1{StrandType:ss}|RNA2{StrandType:as}$	23.2
RNA1{r(G)p.r(A)p.r(A)p.r(G)p.r(G)p.r(A)p.r(U)p.r(C)p.r(G)p.r(G)p.r(G)p.r(A)p.r(G)p.r(U)p.r(A)p.r(C)p.r(A)p.r(C)p.r(A)p.d(T)p.d(T)}|RNA2{r(U)p.r(G)p.r(U)p.r(G)p.r(U)p.r(A)p.r(C)p.r(U)p.r(C)p.r(C)p.r(C)p.r(G)p.r(A)p.r(U)p.r(C)p.r(C)p.r(U)p.r(U)p.r(C)p.d(C)p.d(C)}$$$RNA1{StrandType:ss}|RNA2{StrandType:as}$	74.3
RNA1{r(G)p.r(A)p.r(C)p.r(C)p.r(A)p.r(U)p.r(U)p.r(C)p.r(U)p.r(C)p.r(C)p.r(U)p.r(G)p.r(A)p.r(G)p.r(U)p.r(G)p.r(U)p.r(G)p.d(T)p.d(T)}|RNA2{r(C)p.r(A)p.r(C)p.r(A)p.r(C)p.r(U)p.r(C)p.r(A)p.r(G)p.r(G)p.r(A)p.r(G)p.r(A)p.r(A)p.r(U)p.r(G)p.r(G)p.r(U)p.r(C)p.d(C)p.d(T)}$$$RNA1{StrandType:ss}|RNA2{StrandType:as}$	44.9
RNA1{r(G)p.r(A)p.r(C)p.r(G)p.r(A)p.r(G)p.r(G)p.r(G)p.r(C)p.r(G)p.r(A)p.r(U)p.r(C)p.r(U)p.r(A)p.r(U)p.r(A)p.r(C)p.r(A)p.d(T)p.d(T)}|RNA2{r(U)p.r(G)p.r(U)p.r(A)p.r(U)p.r(A)p.r(G)p.r(A)p.r(U)p.r(C)p.r(G)p.r(C)p.r(C)p.r(C)p.r(U)p.r(C)p.r(G)p.r(U)p.r(C)p.d(C)p.d(A)}$$$RNA1{StrandType:ss}|RNA2{StrandType:as}$	64.3
RNA1{r(G)p.r(A)p.r(C)p.r(G)p.r(A)p.r(G)p.r(G)p.r(G)p.r(C)p.r(U)p.r(C)p.r(A)p.r(G)p.r(A)p.r(C)p.r(C)p.r(U)p.r(C)p.r(U)p.d(T)p.d(T)}|RNA2{r(A)p.r(G)p.r(A)p.r(G)p.r(G)p.r(U)p.r(C)p.r(U)p.r(G)p.r(A)p.r(G)p.r(C)p.r(C)p.r(C)p.r(U)p.r(C)p.r(G)p.r(U)p.r(C)p.d(G)p.d(G)}$$$RNA1{StrandType:ss}|RNA2{StrandType:as}$	51.7
RNA1{r(G)p.r(A)p.r(C)p.r(U)p.r(A)p.r(C)p.r(C)p.r(C)p.r(A)p.r(U)p.r(A)p.r(C)p.r(U)p.r(C)p.r(U)p.r(C)p.r(C)p.r(A)p.r(C)p.d(T)p.d(T)}|RNA2{r(G)p.r(U)p.r(G)p.r(G)p.r(A)p.r(G)p.r(A)p.r(G)p.r(U)p.r(A)p.r(U)p.r(G)p.r(G)p.r(G)p.r(U)p.r(A)p.r(G)p.r(U)p.r(C)p.d(G)p.d(A)}$$$RNA1{StrandType:ss}|RNA2{StrandType:as}$	65.9
RNA1{r(G)p.r(A)p.r(G)p.r(U)p.r(A)p.r(C)p.r(U)p.r(G)p.r(C)p.r(G)p.r(U)p.r(G)p.r(A)p.r(A)p.r(G)p.r(A)p.r(C)p.r(C)p.r(A)p.d(T)p.d(T)}|RNA2{r(U)p.r(G)p.r(G)p.r(U)p.r(C)p.r(U)p.r(U)p.r(C)p.r(A)p.r(C)p.r(G)p.r(C)p.r(A)p.r(G)p.r(U)p.r(A)p.r(C)p.r(U)p.r(C)p.d(G)p.d(G)}$$$RNA1{StrandType:ss}|RNA2{StrandType:as}$	73.7
RNA1{r(G)p.r(A)p.r(U)p.r(C)p.r(U)p.r(A)p.r(U)p.r(A)p.r(C)p.r(A)p.r(A)p.r(C)p.r(U)p.r(G)p.r(G)p.r(G)p.r(A)p.r(G)p.r(G)p.d(T)p.d(T)}|RNA2{r(C)p.r(C)p.r(U)p.r(C)p.r(C)p.r(C)p.r(A)p.r(G)p.r(U)p.r(U)p.r(G)p.r(U)p.r(A)p.r(U)p.r(A)p.r(G)p.r(A)p.r(U)p.r(C)p.d(G)p.d(C)}$$$RNA1{StrandType:ss}|RNA2{StrandType:as}$	41.7
RNA1{r(G)p.r(A)p.r(U)p.r(G)p.r(U)p.r(A)p.r(C)p.r(A)p.r(G)p.r(G)p.r(A)p.r(A)p.r(G)p.r(U)p.r(G)p.r(G)p.r(A)p.r(A)p.r(A)p.d(T)p.d(T)}|RNA2{r(U)p.r(U)p.r(U)p.r(C)p.r(C)p.r(A)p.r(C)p.r(U)p.r(U)p.r(C)p.r(C)p.r(U)p.r(G)p.r(U)p.r(A)p.r(C)p.r(A)p.r(U)p.r(C)p.d(A)p.d(C)}$$$RNA1{StrandType:ss}|RNA2{StrandType:as}$	82.9
RNA1{r(G)p.r(C)p.r(C)p.r(C)p.r(G)p.r(A)p.r(C)p.r(G)p.r(A)p.r(G)p.r(G)p.r(G)p.r(C)p.r(U)p.r(C)p.r(A)p.r(G)p.r(A)p.r(C)p.d(T)p.d(T)}|RNA2{r(G)p.r(U)p.r(C)p.r(U)p.r(G)p.r(A)p.r(G)p.r(C)p.r(C)p.r(C)p.r(U)p.r(C)p.r(G)p.r(U)p.r(C)p.r(G)p.r(G)p.r(G)p.r(C)p.d(G)p.d(C)}$$$RNA1{StrandType:ss}|RNA2{StrandType:as}$	33.6
